Experimental data taken from patent US20240001019A1, “MBL-COATED SUBSTRATES HAVING ANTI-THROMBOGENIC PROPERTIES” (MIRAKI INNOVATION THINK TANK LLC, priority 2020, published 2024).

Experiments:
[1] = system: CD62P (platelet P-selectin); assay: Flow-cytometric analysis of platelet activation (CD62P on CD41a positive platelets); format: cell-based, human; conditions: for CD62P geometrical means of fluorescence intensity from TRAP-incubated samples: 35 μM TRAP, 20 min
[2] = Retention of coupled FcMBL on the membrane under flow (PBS/EDTA wash fractions); format: physicochemical; conditions: Lot 152-04052017, Devices #1-#3, serial 45 mL fractions
Procedure: The FcMBL protein concentration in each sample was determined using the Pierce 660 nm assay and an FcMBL standard curve.
Three Filtrivas from Lot 152-04052017 (Devices #1, #2, and #3) were selected for analysis of their respective PBS/EDTA wash fractions to determine the extent to which the FcMBL bound to the membrane, remains bound under flow conditions. The mass of protein obtained from five serial fractions of 45 mL, three fractions from the Blood Port Output and two fractions from the subsequent Wash Buffer, was determined. […] After the second Blood Port Output, the amount of FcMBL in the subsequent fractions was undetectable (data not shown).

Substance	CD62P geometrical means of fluorescence intensity from TRAP-incubated samples ([1]; 1st experiment)	CD62P geometrical means of fluorescence intensity from TRAP-incubated samples ([1]; 2nd experiment)	CD62P geometrical means of fluorescence intensity from TRAP-incubated samples ([1]; 3rd experiment)	CD62P geometrical means of fluorescence intensity, positive control ([1]; all experiments)	FcMBL coupled to the membrane under flow, PBS/EDTA washing [2]
thrombin receptor activating peptide [TRAP]	1376	209	350	> 200	
FcMBL: 383-amino acid human recombinant fusion protein: carbohydrate-binding and neck domains of MBL and Fc domain of human IgG1					stays bound under flow conditions
